Where two headings read alike, the source gives them in different places.
Columns and labels:
murine SMOX [1] = biological target: T1, murine SMOX (Mus musculus, UniProt Q99K82); assay: Inhibition of SMOX activity, spermine as substrate; assay type: biochemical; conditions: for SMOX Kmapp/Km0: 50 μM compound, relative to control
murine PAOX = murine PAOX (Mus musculus, UniProt Q8C0L6); assay: Inhibition of PAOX activity, N1AcSPM as substrate; assay type: biochemical; conditions: for PAOX Kmapp/Km0: 50 μM compound, relative to control; for PAOX Kmapp: Km of N1AcSPM in the presence of 50 μM compound
[2] = biological target: PAOX activity in HT22 cells (Mus musculus, UniProt Q8C0L6); assay: PAOX activity in whole HT22 cells; assay type: cell-based
[3] = cited from earlier work
ODC = conditions: at a concentration of 10 μM; cited from earlier work
SSAT = conditions: at a concentration of 10 μM; cited from earlier work
murine SMOX [4] = biological target: T1, murine SMOX; conditions: read-out: SMOX Ki; purified murine SMOX; cited from earlier work
human MAO A = conditions: cited from earlier work
MAOs = assay: Amine oxidase activity in HT22 cell lysate, tyramine as substrate; assay type: biochemical, mouse; conditions: tyramine 1 mM, after pre-incubation with inhibitor
[5] = Km of SPM in the presence of 50 μM compound

T1 sequence (Q99K82 whole entry): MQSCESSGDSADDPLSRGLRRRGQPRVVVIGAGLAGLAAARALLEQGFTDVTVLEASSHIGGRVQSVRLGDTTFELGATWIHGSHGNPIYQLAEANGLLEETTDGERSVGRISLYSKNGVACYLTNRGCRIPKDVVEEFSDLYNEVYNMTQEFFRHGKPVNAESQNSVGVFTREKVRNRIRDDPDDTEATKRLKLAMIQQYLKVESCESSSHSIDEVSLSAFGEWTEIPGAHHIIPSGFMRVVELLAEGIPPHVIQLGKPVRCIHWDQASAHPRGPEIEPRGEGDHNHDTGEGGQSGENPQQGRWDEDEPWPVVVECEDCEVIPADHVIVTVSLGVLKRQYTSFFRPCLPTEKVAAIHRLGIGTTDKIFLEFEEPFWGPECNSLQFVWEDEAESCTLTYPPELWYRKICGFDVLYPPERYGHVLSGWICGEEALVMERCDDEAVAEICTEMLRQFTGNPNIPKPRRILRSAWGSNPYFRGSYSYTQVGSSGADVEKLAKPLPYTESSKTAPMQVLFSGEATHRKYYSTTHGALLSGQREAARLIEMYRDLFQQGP
murine PAOX, sequence (Q8C0L6 whole entry): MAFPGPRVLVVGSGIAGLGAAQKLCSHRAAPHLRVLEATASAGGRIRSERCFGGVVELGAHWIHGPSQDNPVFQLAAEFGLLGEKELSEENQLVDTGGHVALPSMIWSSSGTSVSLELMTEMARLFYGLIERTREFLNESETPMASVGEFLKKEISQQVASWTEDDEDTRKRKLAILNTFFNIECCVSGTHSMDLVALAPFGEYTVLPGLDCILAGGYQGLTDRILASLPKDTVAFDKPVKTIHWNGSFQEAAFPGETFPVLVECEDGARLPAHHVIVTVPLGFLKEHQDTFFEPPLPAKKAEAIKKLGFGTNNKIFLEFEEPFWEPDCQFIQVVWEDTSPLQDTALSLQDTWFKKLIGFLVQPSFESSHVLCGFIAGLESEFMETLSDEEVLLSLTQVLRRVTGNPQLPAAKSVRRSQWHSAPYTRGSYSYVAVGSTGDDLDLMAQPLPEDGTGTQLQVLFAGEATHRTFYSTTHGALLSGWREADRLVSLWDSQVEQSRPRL
PAOX activity in HT22 cells, sequence (Q8C0L6 whole entry): as above

[H]/N=C(\N/C(=N/[H])NCCCCCCNC(=N)NC(=N)Nc1ccc(Cl)cc1)Nc1ccc(Cl)cc1 [Chlorhexidine, chlorhexidine, reference compound]
Ki (murine SMOX [1]): 3.8 ± 0.2 µM | SMOX Kmapp (murine SMOX [1]): 1402 ± 124 µM

c1ccc(CNCCCCCCCCCCCCNCc2ccccc2)cc1 [Compound 9, N1,N^12-dibenzyldodecanediamine]
SMOX Kmapp/Km0 (murine SMOX [1]): 2.3 | SMOX Kmapp (murine SMOX [1]; [5]): 1135 ± 141 µM | PAOX Kmapp/Km0 (murine PAOX): 108 | PAOX Kmapp (murine PAOX): 41 ± 221 µM

COc1ccccc1CNCCCCCCNCCCCCCCCNCCCCCCNCc1ccccc1OC [Compound 10, Methoctramine]
Ki (murine SMOX [1]): 1.2 ± 0.1 µM | SMOX Kmapp/Km0 (murine SMOX [1]): 18 | SMOX Kmapp (murine SMOX [1]; [5]): 8940 ± 1600 µM | Mode of inhibition of SMOX (murine SMOX [1]; double reciprocal plots): competitive inhibitors | Ki (murine PAOX): 0.01 ± 0.0015 µM | Mode of inhibition of PAOX (murine PAOX; double reciprocal plots): competitive inhibitors | IC50 [2]: 0.16 ± 0.01 µM | IC50 in HT22 cells relative to Ki of recombinant enzyme ([2]; IC50/Ki): about 16 times | Cytotoxicity [3]: low cytotoxicity | Effect on ODC (ODC): did not significantly affect | Effect on SSAT (SSAT): did not significantly affect

COc1ccccc1CN(C)CCCCCC(=O)N(C)CCCCCCCCN(C)C(=O)CCCCCN(C)Cc1ccccc1OC [Compound 14, Caproctamine]
SMOX Kmapp/Km0 (murine SMOX [1]): 1.21 | SMOX Kmapp (murine SMOX [1]; [5]): 598 ± 156 µM | PAOX Kmapp/Km0 (murine PAOX): 112 | PAOX Kmapp (murine PAOX): 43 ± 9 µM

NCCCCCCCCCCCCN [DIADO, 1,12-diaminododecane, reference compound]
SMOX Kmapp/Km0 (murine SMOX [1]): 1.2 | SMOX Kmapp (murine SMOX [1]; [5]): 600 ± 100 µM | PAOX Kmapp/Km0 (murine PAOX): 9 | PAOX Kmapp (murine PAOX): 3.40 ± 0.26 µM | Ki (murine SMOX [4]): > 1000 µM | Behaviour towards MAO A (human MAO A): excellent substrate

C#CCN(C)Cc1ccccc1 [pargyline]
Activity with tyramine with respect to control sample (MAOs): 2%
